According to PMC11393453, “Phosphorylation of tau at a single residue inhibits binding to the E3 ubiquitin ligase, CHIP” (Nature Communications, 2024):
Read-outs that look alike come from different tables or passages of the source.

Legend:
HEK293 FlpIn T-Rex cells = test: Tau protein abundance by western blot (tau:tubulin); assay type: cell-based; conditions: Fig 3G; for normalized tau:tubulin ratios: normalized to full-length tau
Method: Fig. 3 TauC3 Ser416 phosphorylation regulates CHIP-dependent tau homeostasis. A In vitro ubiquitination of tau proteoforms by CHIP. Samples were collected at the denoted timepoints, quenched in SDS-PAGE loading buffer, and analyzed by western blot. B Quantification of unmodified tau remaining following in vitro ubiquitination of varying tau proteoforms by CHIP. Unmodified tau remaining was analyzed by densitometry, normalized to 0-min time point, and curves were fit using one-phase exponential decay (n = 3 technical replicates). C Cartoon schematic depicting promoter architecture and varying C-terminal sequences for HEK293 FlpIn T-Rex cells expressing doxycycline inducible GFP-tau proteoforms. D Representative fluorescence micrographs for GFP-tau cells. Images show tau species associated with microtubules (green, false color), while nuclei are stained with Hoechst 33342 (blue, false color). Scale bar = 30 µm. Images are representative of three separate acquisitions. E Co-immunoprecipitation assay following IP of varying tau species from cells. Whole cell lysate (input) was used for loading controls, and co-immunoprecipitated CHIP was analyzed by western blot. Experiment was repeated in duplicate. F Representative western blot showing differing abundance of various tau proteoforms in HEK293 FlpIn T-Rex cells. Experiment was repeated in duplicate. G Quantification of tau protein abundance taken from three independent biological experiments. Tau:tubulin ratio was determined by densitometry and normalized to full-length tau. Error bars represent SD. Statistical significance was determined by one-way ANOVA with Tukey’s post hoc analysis. H Quantification of MAPT mRNA from three independent biological experiments. MAPT mRNA was normalized to GAPDH and shown relative to full-length tau. Error bars represent SD. Statistical significance was determined by one-way ANOVA with Tukey’s post hoc analysis.
Construction of the stable dox-inducible HEK 293 eGFP-tau reporter cell lines was performed as described. In brief, parent HEK 293 Flp-In T-REx cells were harvested by trypsinization, resuspended in electroporation buffer containing 5 µg eGFP-tau plasmid DNA and 45 µg pOG44 plasmid DNA. Cells were electroporated using program Q-001 on a Lonza 4D-Nucleofector. Electroporated cells were immediately diluted in 10% FBS-DMEM and cultured for 48 h to recover. Following recovery, cells were selected with 100 µg/mL hygromycin until single colonies arose. Colonies were subsequently picked and screened for dox-inducible expression of eGFP-tau by fluorescence microscopy (Echo Revolve) and western blotting.
Prepared samples were separated on precast 4–20% SDS-PAGE gradient gels (Bio-Rad) for 35 min at 200 V. Proteins were transferred to nitrocellulose membranes using a Trans-Blot Turbo Transfer System (Bio-Rad). Membranes were blocked in Odyssey TBS Blocking Buffer (Licor) for 1 h at room temperature and then incubated in primary antibody in 1X Tris-Buffer saline containing 0.05% Tween-20 (1X TBS-T), plus 5% non-fat dry milk powder, and 0.02% NaN3 overnight at 4 °C with rotation. The following day, membranes were washed 3 times in 1X TBS-T and then incubated in secondary antibody diluted 1:10,000 in Odyssey TBS Antibody Diluent (Licor) for 1 h at room temperature. Following incubation with secondary antibody, membranes were washed 3 times in 1X TBS-T and imaged on an Odyssey Fc Imaging System (Licor). Quantification was performed by densitometry analysis in ImageJ (NIH). Raw images, along with select quantifications, can be found in Fig. S6. […]

CHIP = test: CHIP-tau binding ELISA (tau proteoforms on immobilized CHIP); conditions: Fig 1D

**Q.** “tau: full length (FL) 0N4R splice isoform of tau, unmodified; recombinant or expressed in cells” was tested. Which “normalized tau:tubulin ratios” value (HEK293 FlpIn T-Rex cells; replicate 1) did it give?
**A.** 107.457

**Q.** And the “normalized tau:tubulin ratios” value (HEK293 FlpIn T-Rex cells; replicate 2)?
**A.** 93.4819

**Q.** What about the “normalized tau:tubulin ratios” value (HEK293 FlpIn T-Rex cells; replicate 3) of the same substance?
**A.** 99.0612

**Q.** What about the “raw tau:tubulin ratios” value (HEK293 FlpIn T-Rex cells; replicate 1) of the same substance?
**A.** 1.039

**Q.** What about the “raw tau:tubulin ratios” value (HEK293 FlpIn T-Rex cells; replicate 2) of the same substance?
**A.** 0.9043

**Q.** And the “raw tau:tubulin ratios” value (HEK293 FlpIn T-Rex cells; replicate 3)?
**A.** 0.9582

**Q.** And the Kd (CHIP; replicate 1)?
**A.** 5.98 µM

**Q.** And the Kd (CHIP; replicate 2)?
**A.** 6.43 µM

**Q.** What about the Kd (CHIP; replicate 3) of the same substance?
**A.** 6.35 µM

**Q.** And the Kd (CHIP; read-out: transformed Kd, replicate 1)?
**A.** 5.98 µM

**Q.** And the Kd (CHIP; read-out: transformed Kd, replicate 2)?
**A.** 6.43 µM

**Q.** What about the Kd (CHIP; read-out: transformed Kd, replicate 3) of the same substance?
**A.** 6.35 µM
